Reference: PMC6270562, “Design, Synthesis and Trypanocidal Evaluation of Novel 1,2,4-Triazoles-3-thiones Derived from Natural Piperine” (Molecules, 2013)

Assays:
[1] = test system: epimastigote form of Y strain T. cruzi; assay: Anti-epimastigote effect (direct count of live epimastigotes after 7 days); format: cell-based, Trypanosoma cruzi; conditions: mean of triplicate
Protocol: (§1) Trypanosoma cruzi (Y strain) was obtained from the Fundação Oswaldo Cruz (Rio de Janeiro, Brazil) culture collection, and maintained in the Laboratory of Glycobiology (UFRJ, Rio de Janeiro, Brazil) facilities. Epimastigote forms were maintained by weekly transfers at 28 °C in brain-heart-infusion (BHI) medium (Acumedia, Lansing, MI, USA), supplemented with 10 mg of hemin (Sigma, St. Louis, MO, USA), 20 mg of folic acid L^−1 (Sigma) and 10% heat-inactivated fetal calf serum (FCS) (BHI-FCS medium, Gibco, Grand Island, NY, USA). Tissue culture-derived trypomastigotes were obtained after infection of confluent monolayers of Vero cells (kidney epithelial cells extracted from African green monkeys) with blood trypomastigotes (Y strain) to establish the intracellular cycle and maintained in RPMI 1640 medium containing 10% FCS under an atmosphere of 5% CO2 at 37 °C. The tissue culture-derived trypomastigotes were used to infect Mø in vitro to evaluate the toxic effects of the drugs.
For evaluation of the anti-epimastigote effects, parasites (1 × 10^5 cells per mL) were subcultured in the absence or presence of different concentrations (0.5 to 25 μg.mL^−1) of the drugs 9a–9m, from a 5 mg mL^−1 stock solution in DMSO (Sigma). The parasites were incubated in BHI-FCS medium with or without drugs in a final volume of 1.0 mL in 24-well plates (TPP, Trasadingen, Switzerland), and after 7 days, the toxic effects of the drugs were quantified by the direct count of the live epimastigotes in a Neubauer chamber.
(§2) The 50% inhibitory concentrations (IC50) values shown in the Table 1 represent the mean of experiments carried out in triplicate. The IC50 of all compounds were determined by linear regression analysis using the program IGOR Pro 2.03 (WaveMetrics, Inc, Lake Oswego, OR, USA).

amastigotes of T. cruzi = assay: Anti-amastigote effect in infected peritoneal macrophages; format: cell-based; conditions: Trypanosoma cruzi, Peritoneal macrophage, in Mus musculus; T. cruzi Y strain, intracellular amastigotes in BALB/c peritoneal Mø, 0.5-5.0 µg mL−1; ≥ = maximum concentration allowed by trypan blue exclusion assay
Protocol: as §1
Resident peritoneal Mø from non-infected BALB/c mice were harvested and cultured as described above. Adhered Mø were infected with T. cruzi trypomastigotes at a 10:1 parasite/macrophage ratio and incubated at 37 °C under 5% CO2 for 1 h. […] After, monolayers were washed with PBS at 37 °C, fixed in methanol, and stained with Giemsa (Sigma). The amastigote survival was determined by the counting of 200 cells in triplicate, the percentage of infected cells was analyzed, as well as the number of amastigotes per macrophage and the endocytic index of the infected cells.
as §2

[2] = test system: peritoneal macrophages (Mø) from Balb/c mice; assay: Cytotoxicity to macrophages (trypan blue dye exclusion assay); format: cell-based; conditions: murine macrophages, 0.5-5 μg mL−1, 72 h
Protocol: The evaluation of the toxic effects of the compounds was carried out as previously described. Murine peritoneal Mø were seeded (1 × 10^6 cells per well) in 24-well plates with 1 mL of RPMI medium containing 10% FCS. […] The five drugs were assayed in increasing concentrations (0.5, 1.0, 2.5, 5.0 µg mL^−1). Afterwards, the cells were washed with PBS, and RPMI was added to the culture before the addition of vital dye trypan blue in a final concentration of 0.01%. The toxic effects of the drugs were monitored by the count of 200 cells in a Neubauer chamber where plasma membrane permeability was evaluated.

Row | Compound | melting point | IC50 [1] | IC50 ([1]; Trypanosoma cruzi, 168 h) | IC50 (amastigotes of T. cruzi) | toxicity on host cells [2]
1 | Cn1c(/C=C/C=C/c2ccc3c(c2)OCO3)n[nH]c1=S [9a, 5-[(1E,3E)-4-(1,3-Benzodioxol-5-yl)buta-1,3-dien-1-yl]-4-methyl-2,4-dihydro-3H-1,2,-triazole-3-thione] | 220 to 222 °C | – | 44.2 ± 7.3 µM | – | –
2 | CCn1c(/C=C/C=C/c2ccc3c(c2)OCO3)n[nH]c1=S [9b, 5-[(1E,3E)-4-(1,3-Benzodioxol-5-yl)buta-1,3-dien-1-yl]-4-ethyl-2,4-dihydro-3H-1,2,4-triazole-3-thione] | 208 to 209 °C | – | 50.2 ± 10.8 µM | – | –
3 | CC(C)n1c(/C=C/C=C/c2ccc3c(c2)OCO3)n[nH]c1=S [9c, 5-[(1E,3E)-4-(1,3-Benzodioxol-5-yl)buta-1,3-dien-1-yl]-4-isopropyl-2,4-dihydro-3H-1,2,4-triazole-3-thione] | 210 to 211 °C | 27 ± 6.98 µM | < 30 µM | 11.1 ± 1.26 µM | –
4 | CCCCn1c(/C=C/C=C/c2ccc3c(c2)OCO3)n[nH]c1=S [9d, 5-[(1E,3E)-4-(1,3-Benzodioxol-5-yl)buta-1,3-dien-1-yl]-4-butyl-2,4-dihydro-3H-1,2,4-triazole-3-thione] | 173 to 174 °C | – | – | ≥ 15.2 µM | –
5 | CCCCCCn1c(/C=C/C=C/c2ccc3c(c2)OCO3)n[nH]c1=S [9e, 5-[(1E,3E)-4-(1,3-Benzodioxol-5-yl)buta-1,3-dien-1-yl]-4-hexyl-2,4-dihydro-3H-1,2,4-triazole-3-thione] | 124 to 125 °C | 15.4 ± 4.47 µM | < 30 µM | ≥ 14 µM | –
6 | S=c1[nH]nc(/C=C/C=C/c2ccc3c(c2)OCO3)n1C1CCCCC1 [9f, 5-[(1E,3E)-4-(1,3-Benzodioxol-5-yl)buta-1,3-dien-1-yl]-4-cyclohexyl-2,4-dihydro-3H-1,2,4-triazole-3-thione] | 192 to 194 °C | 18.3 ± 5.21 µM | < 30 µM | 8.87 ± 2.39 µM | low toxic effects
7 | S=c1[nH]nc(/C=C/C=C/c2ccc3c(c2)OCO3)n1-c1ccccc1 [9g, 5-[(1E,3E)-4-(1,3-Benzodioxol-5-yl)buta-1,3-dien-1-yl]-4-phenyl-2,4-dihydro-3H-1,2,4-triazole-3-thione] | 244 to 245 °C | – | 39 ± 8.88 µM | – | –
8 | O=C(Cn1ccnc1[N+](=O)[O-])NCc1ccccc1 [Benznidazole, benznidazole, reference compound] | – | – | 2.2 ± 0.16 µM | 2.5 ± 0.21 µM | –

Second part, led by results:

Row | melting point | IC50 [1] | Compound | IC50 ([1]; Trypanosoma cruzi, 168 h) | IC50 (amastigotes of T. cruzi) | toxicity on host cells [2]
9 | 187 to 188 °C | – | S=c1[nH]nc(/C=C/C=C/c2ccc3c(c2)OCO3)n1Cc1ccccc1 [9h, 5-[(1E,3E)-4-(1,3-Benzodioxol-5-yl)buta-1,3-dien-1-yl]-4-benzyl-2,4-dihydro-3H-1,2,4-triazole-3-thione] | 39.4 ± 6.88 µM | – | –
10 | 242 to 243 °C | – | COc1cc(-n2c(/C=C/C=C/c3ccc4c(c3)OCO4)n[nH]c2=S)cc(OC)c1OC [9i, 5-[(1E,3E)-4-(1,3-Benzodioxol-5-yl)buta-1,3-dien-1-yl]-4-(3,4,5-trimethoxyphenyl)-2,4-dihydro-3H-1,2,4-triazole-3-thione] | 35.3 ± 6.26 µM | – | –
11 | 183 to 184 °C | – | CC(C)(C)n1c(/C=C/C=C/c2ccc3c(c2)OCO3)n[nH]c1=S [9j, 5-[(1E,3E)-4-(1,3-Benzodioxol-5-yl)buta-1,3-dien-1-yl]-4-tert-butyl-2,4-dihydro-3H-1,2,4-triazole-3-thione] | 50.8 ± 10.6 µM | – | –
12 | 209 to 211 °C | – | CSc1ccc(-n2c(/C=C/C=C/c3ccc4c(c3)OCO4)n[nH]c2=S)cc1 [9k, 5-[(1E,3E)-4-(1,3-Benzodioxol-5-yl)buta-1,3-dien-1-yl]-4-[4-(methylthio)phenyl]-2,4-dihydro-3H-1,2,4-triazole-3-thione] | 40.8 ± 10.5 µM | – | –
13 | 248 to 249 °C | – | COc1cccc(-n2c(/C=C/C=C/c3ccc4c(c3)OCO4)n[nH]c2=S)c1 [9l, 5-[(1E,3E)-4-(1,3-Benzodioxol-5-yl)buta-1,3-dien-1-yl]-4-(3-methoxyphenyl)-2,4-dihydro-3H-1,2,4-triazole-3-thione] | 48 ± 6.06 µM | – | –
14 | 232 to 233 °C | 18.5 ± 3.95 µM | FC(F)(F)c1ccc(-n2c(/C=C/C=C/c3ccc4c(c3)OCO4)n[nH]c2=S)cc1 [9m, 5-[(1E,3E)-4-(1,3-Benzodioxol-5-yl)buta-1,3-dien-1-yl]-4-[4-(trifluoromethyl)phenyl]-2,4-dihydro-3H-1,2,4-triazole-3-thione] | < 30 µM | 9.59 ± 2.87 µM | –
